What all share (type): functional
The subject of one test is Enterobacter sp. Put plainly: In vitro antibacterial against Enterobacter species. by agar disc diffusion assay method with respect to imipenem.
Test [1] relates to Staphylococcus sp. Put plainly: In vitro antibacterial activity against Methicillin-resistant coagulase negative Staphylococci (MRCNS) by agar disc diffusion assay method with respect to imipenem.
A further test relates to Enterococcus sp. Nature of the test: In vitro antibacterial against Enterococcus species. by agar disc diffusion assay method with respect to imipenem. (In general: A growth-free zone around the sample is the usual read-out of agar diffusion tests.)
The test system of another test is Klebsiella sp. Nature of the test: In vitro antibacterial against Klebsiella species. by agar disc diffusion assay method with respect to imipenem.
The test system of test [2] is Staphylococcus sp. Nature of the test: In vitro antibacterial activity against Methicillin-resistant coagulase negative Staphylococci (MRCNS) by broth microtube dilution method; value ranges from 1-4.
The test system of another test is Pseudomonas aeruginosa. Put plainly: In vitro antibacterial against Pseudomonas aeruginosa by agar disc diffusion assay method.
The species named for another test is Sus scrofa. Put plainly: DHP-I (porcine) susceptibility with respect to imipenem.
For another test, the system named is Escherichia coli. Nature of the test: In vitro antibacterial against Escherichia coli by agar disc diffusion assay method with respect to imipenem.
Another test has as its system Serratia. Put plainly: In vitro antibacterial against Serratia species. by agar disc diffusion assay method with respect to imipenem.
In a further test the test system is Proteus. Put plainly: In vitro antibacterial against Proteus species. by agar disc diffusion assay method with respect to imipenem.
Test [3] concerns Staphylococcus aureus. Nature of the test: In vitro antibacterial activity against Methicillin-resistant Staphylococcus aureus (MRSA) by broth microtube dilution method; value ranges from 0.5-8.
For test [4], the system named is Staphylococcus aureus. Put plainly: In vitro antibacterial activity against Methicillin-susceptible Staphylococcus aureus (MSSA) by agar disc diffusion assay method with respect to imipenem.
Test [5] has as its system Staphylococcus aureus. Nature of the test: In vitro antibacterial activity against Methicillin-resistant Staphylococcus aureus (MRSA) by agar disc diffusion assay method with respect to imipenem.
Test [6] has as its system Staphylococcus sp. Nature of the test: In vitro antibacterial activity against Methicillin-resistant coagulase negative Staphylococci (MRCNS) by broth microtube dilution method; value ranges from 4-32.
Test [7] deals with Staphylococcus aureus. Nature of the test: In vitro antibacterial activity against Methicillin-resistant Staphylococcus aureus (MRSA) by broth microtube dilution method; value ranges from 1-16.
Test [8] deals with Staphylococcus sp. Put plainly: In vitro antibacterial activity against Methicillin-resistant coagulase negative Staphylococci (MRCNS) by broth microtube dilution method; value ranges from 2-16.
Test [9] deals with Staphylococcus aureus. Nature of the test: In vitro antibacterial activity against Methicillin-resistant Staphylococcus aureus (MRSA) by broth microtube dilution method; value ranges from 0.5-4.
Test [10] concerns Staphylococcus aureus. Put plainly: In vitro antibacterial activity against Methicillin-resistant Staphylococcus aureus (MRSA) by broth microtube dilution method; value ranges from 1-8.

In brackets after ≈: the same amount, converted by molar mass.

With `C[C@@H]([O-])[C@H]1C(=O)N2C(C(=O)[O-])=C(c3ccc4[nH]c5c[n+](C)ccc5c4c3)C[C@H]12.[Na+]`, the Relative potency with Enterobacter sp. is on record as 7.7 fold; with Staphylococcus sp. [1] it was 166 fold; in the test on Enterococcus sp., 2.8 fold; in the test with Klebsiella sp., 2.8 fold; in the test on Pseudomonas aeruginosa it was 0.027 fold; in the test on Escherichia coli, 9.2 fold. Besides, the Relative potency with Serratia was 12 fold; with Proteus, 25 fold; with Staphylococcus aureus [4], 0.42 fold; in the test with Staphylococcus aureus [5], 28 fold. For the same compound, the MIC50 against Staphylococcus sp. [2] amounted to 4 µg/mL; in the test with Staphylococcus aureus [3], 2 µg/mL. In addition, the MIC90 in the test with Staphylococcus sp. [2] and against Staphylococcus aureus [3] was 4 µg/mL each time. For the same compound, in the test filed under Sus scrofa, the Relative susceptibility was found to be 0.027.

Turning to `C[C@@H](O)[C@H]1C(=O)N2C(C(=O)[O-])=C(c3ccc4c(c3)c3cccnc3n4C)C[C@H]12.[Na+]`, the Relative potency in the test with Enterobacter sp. was 0.034 fold; in the test with Staphylococcus sp. [1] it was 8.6 fold; with Enterococcus sp., 2.1 fold; with Klebsiella sp. it was 0.059 fold; in the test with Pseudomonas aeruginosa, 0.007 fold; in the test on Escherichia coli it was 0.12 fold. Also, the Relative potency in the test on Serratia worked out at 0.1 fold; with Proteus it was 1.4 fold; in the test on Staphylococcus aureus [4] it was 0.17 fold; in the test with Staphylococcus aureus [5], 8 fold. Besides, the values for the MIC50 in the test on Staphylococcus sp. [6] and against Staphylococcus aureus [7] were 8 µg/mL and 4 µg/mL, respectively. For the same compound, the MIC90 in the test with Staphylococcus sp. [6] was found to be 16 µg/mL; in the test with Staphylococcus aureus [7], 8 µg/mL. Moreover, in the test listed under Sus scrofa, the Relative susceptibility was determined as 0.06.

On to `C[C@@H](O)[C@H]1C(=O)N2C(C(=O)[O-])=C(c3ccc4c(c3)c3cnccc3n4C)C[C@H]12.[Na+]`, for which the Relative potency with Enterobacter sp. is recorded as 0.98 fold; with Staphylococcus sp. [1] it was 40 fold; in the test on Enterococcus sp. it was 4 fold; in the test on Klebsiella sp., 0.94 fold; in the test with Pseudomonas aeruginosa it was 0.018 fold; with Escherichia coli, 1.8 fold. Moreover, the Relative potency in the test on Serratia came to 4.8 fold; with Proteus it was 20 fold; in the test on Staphylococcus aureus [4], 0.56 fold; in the test with Staphylococcus aureus [5] it was 11 fold. The MIC50 came to 8 µg/mL in the test with Staphylococcus sp. [8] and 4 µg/mL against Staphylococcus aureus [3]. Moreover, the MIC90 was 16 µg/mL against Staphylococcus sp. [8] and 8 µg/mL against Staphylococcus aureus [3]. Also, the Relative susceptibility in the test filed under Sus scrofa came to 0.

In the case of `C[C@@H]([O-])[C@H]1C(=O)N2C(C(=O)[O-])=C(c3ccc4c(c3)c3ccc[n+](C)c3n4C)C[C@H]12.[Na+]`, the Relative potency with Enterobacter sp. is 2.8 fold; with Staphylococcus sp. [1], 313 fold; in the test on Enterococcus sp., 3.9 fold; in the test on Klebsiella sp., 3 fold; with Pseudomonas aeruginosa it was 0.057 fold; in the test with Escherichia coli it was 4.8 fold. Moreover, the Relative potency came out at 4.5 fold in the test with Serratia, 26 fold in the test with Proteus, 0.49 fold in the test on Staphylococcus aureus [4] and 30 fold with Staphylococcus aureus [5]. Besides, the MIC50 against Staphylococcus aureus [9] was 2 µg/mL; in the test on Staphylococcus sp. [2], 4 µg/mL. Moreover, the MIC90 against Staphylococcus aureus [9] and against Staphylococcus sp. [2] was 4 µg/mL in each case. Further, in the test listed under Sus scrofa, the Relative susceptibility came out at 0.05.

For the compound `C[C@@H](O)[C@H]1C(=O)N2C(C(=O)[O-])=C(c3ccc4c(c3)c3c[n+](C)ccc3n4C)C[C@H]12`, the Relative potency in the test on Enterobacter sp. came to 0.94 fold; in the test with Staphylococcus sp. [1], 40 fold; in the test with Enterococcus sp. it was 3.7 fold; with Klebsiella sp. it was 1.2 fold; in the test on Pseudomonas aeruginosa, 0.026 fold; in the test with Escherichia coli it was 1.5 fold. For the same compound, the Relative potency was 2.1 fold in the test on Serratia, 14 fold in the test on Proteus, 0.59 fold in the test on Staphylococcus aureus [4] and 14 fold in the test on Staphylococcus aureus [5]. For the same compound, the MIC50 against Staphylococcus sp. [8] is 8 µg/mL (≈ 20.4 µM); with Staphylococcus aureus [10], 4 µg/mL (≈ 10.2 µM). For the same compound, the MIC90 in the test with Staphylococcus sp. [8] turned out to be 16 µg/mL (≈ 40.9 µM); with Staphylococcus aureus [10], 8 µg/mL (≈ 20.4 µM). For the same compound, in the test filed under Sus scrofa, the Relative susceptibility is 0.007.

For `C[C@@H](O)[C@H]1C(=O)N2C(C(=O)[O-])=C(c3cccc4c3c3cccnc3n4C)C[C@H]12.[Na+]`, the Relative potency in the test on Enterobacter sp. is 0.092 fold; in the test on Staphylococcus sp. [1], 12 fold; in the test with Enterococcus sp., 1.4 fold; in the test on Klebsiella sp., 0.08 fold; with Pseudomonas aeruginosa, 0.009 fold; with Escherichia coli, 0.25 fold. For the same compound, the Relative potency is 0.38 fold with Serratia, 1.2 fold with Proteus, 0.26 fold with Staphylococcus aureus [4] and 13 fold in the test on Staphylococcus aureus [5]. Also, the MIC50 in the test on Staphylococcus sp. [8] was 8 µg/mL; against Staphylococcus aureus [7] it was 4 µg/mL. In addition, the MIC90 against Staphylococcus sp. [8] amounted to 16 µg/mL; against Staphylococcus aureus [7], 8 µg/mL. Further, the Relative susceptibility in the test listed under Sus scrofa came out at 0.

As to `CC[n+]1cccc2c3cc(C4=C(C(=O)[O-])N5C(=O)[C@H]([C@@H](C)[O-])[C@H]5C4)ccc3n(C)c21.[Na+]`, the Relative potency worked out at 1.4 fold with Enterobacter sp.; 277 fold with Staphylococcus sp. [1]; 3.7 fold in the test on Enterococcus sp.; 1.4 fold in the test on Klebsiella sp.; 0.035 fold with Pseudomonas aeruginosa; 2.8 fold in the test on Escherichia coli. The Relative potency with Serratia was determined as 3.2 fold; with Proteus, 11 fold; in the test with Staphylococcus aureus [4] it was 0.43 fold; in the test on Staphylococcus aureus [5] it was 21 fold. The Relative susceptibility in the test filed under Sus scrofa is 0.01.

For the compound `C[C@@H](O)[C@H]1C(=O)N2C(C(=O)[O-])=C(c3ccc4c(c3)c3ncccc3n4C)C[C@H]12.[Na+]`, the Relative potency with Enterobacter sp. is on record as 0.065 fold; in the test on Staphylococcus sp. [1] it was 4.5 fold; in the test with Enterococcus sp., 1.2 fold; in the test on Klebsiella sp., 0.16 fold; in the test on Pseudomonas aeruginosa, 0.006 fold; with Escherichia coli, 0.31 fold. Besides, the Relative potency was found to be 0.37 fold with Serratia, 6.6 fold in the test with Proteus, 0.2 fold in the test with Staphylococcus aureus [4] and 5.3 fold in the test with Staphylococcus aureus [5]. In addition, the Relative susceptibility in the test filed under Sus scrofa was 1.8.

As to `C[C@@H](O)[C@H]1C(=O)N2C(C(=O)O)=C(c3ccc4c(c3)c3ccncc3n4C)C[C@H]12`, the Relative susceptibility in the test filed under Sus scrofa is 0.034.

Regarding `C[C@@H]([O-])[C@H]1C(=O)N2C(C(=O)[O-])=C(c3ccc4c(c3)c3cc[n+](C)cc3n4C)C[C@H]12.[Na+]`, the Relative potency was 2.5 fold in the test with Enterobacter sp.; 287 fold with Staphylococcus sp. [1]; 3.8 fold with Enterococcus sp.; 2.5 fold with Klebsiella sp.; 0.035 fold with Pseudomonas aeruginosa; 3.8 fold in the test with Escherichia coli. The Relative potency was found to be 3.6 fold in the test with Serratia, 21 fold in the test with Proteus, 0.38 fold in the test with Staphylococcus aureus [4] and 23 fold with Staphylococcus aureus [5]. The values for the MIC50 against Staphylococcus sp. [2] and with Staphylococcus aureus [10] were 4 µg/mL and 2 µg/mL, respectively. Further, the MIC90 in the test on Staphylococcus sp. [2] and against Staphylococcus aureus [10] was 4 µg/mL each time. This compound displayed a Relative susceptibility in the test listed under Sus scrofa of 0.01.

Consider `C[C@@H](O)[C@H]1C(=O)N2C(C(=O)[O-])=C(c3ccc4c5cccnc5n(C)c4c3)C[C@H]12.[Na+]`, for which the Relative potency in the test with Enterobacter sp. was determined as 0.041 fold; in the test on Staphylococcus sp. [1] it was 4.1 fold; in the test with Enterococcus sp. it was 1.5 fold; with Klebsiella sp., 0.054 fold; in the test on Pseudomonas aeruginosa, 0.007 fold; in the test with Escherichia coli, 0.15 fold. The Relative potency is on record as 0.051 fold in the test with Serratia, 0.59 fold in the test on Proteus, 0.15 fold in the test on Staphylococcus aureus [4] and 4.9 fold in the test with Staphylococcus aureus [5]. In the test listed under Sus scrofa, this compound returned a Relative susceptibility of 0.02.

As to `C[C@@H]([O-])[C@H]1C(=O)N2C(C(=O)[O-])=C(c3ccc4c(c3)c3c(ccc[n+]3C)n4C)C[C@H]12.[Na+]`, the Relative potency was found to be 1.2 fold in the test with Enterobacter sp.; 27 fold in the test on Staphylococcus sp. [1]; 2.5 fold in the test on Enterococcus sp.; 1.1 fold with Klebsiella sp.; 0.018 fold in the test on Pseudomonas aeruginosa; 1.3 fold in the test with Escherichia coli. Further, the Relative potency is 2.2 fold in the test on Serratia, 9.3 fold with Proteus, 0.58 fold in the test with Staphylococcus aureus [4] and 12 fold in the test with Staphylococcus aureus [5]. The MIC50 against Staphylococcus sp. [8] came to 8 µg/mL; against Staphylococcus aureus [10], 4 µg/mL. The MIC90 with Staphylococcus sp. [8] came to 16 µg/mL; in the test on Staphylococcus aureus [10], 8 µg/mL. In the test listed under Sus scrofa, the Relative susceptibility is 0.

As a reminder, the MIC50 is an inhibitory concentration at the 50% level, which refers to growth in some studies and to a panel of isolates in others. Higher therefore signals lower susceptibility. In general, MIC90 refers to an inhibitory concentration at the 90% level, which refers to growth in some studies and to a panel of isolates in others. Higher therefore signals lower susceptibility.

These data come from ChEMBL document CHEMBL1128873, “The synthesis and antibacterial activity of 2-carbolinyl-carbapenems: potent anti-MRSA/MRCNS agents” (1995).
